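In this assay, cells in 96-well plates receive the compound at five concentrations for 48 hours. Endpoints are linearly interpolated between the surrounding concentrations. At the TGI there is no net growth.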
Columns and labels:
Assay in all cases: growth of human tumour cells (NCI), 48 h
SN12C renal = system: SN12C renal
786-0 renal = system: 786-0 renal
U251 CNS = system: U251 CNS
SF-295 CNS = system: SF-295 CNS
HCT-15 colon = system: HCT-15 colon
SK-MEL-2 melanoma = system: SK-MEL-2 melanoma
A498 renal = system: A498 renal
OVCAR-5 ovarian = system: OVCAR-5 ovarian
HT29 colon = system: HT29 colon
M19-MEL melanoma = system: M19-MEL melanoma
NCI-H23 lung = system: NCI-H23 lung
NCI-H226 lung = system: NCI-H226 lung
UACC-257 melanoma = system: UACC-257 melanoma
IGROV1 ovarian = system: IGROV1 ovarian
HOP-62 NSCLC = system: HOP-62 NSCLC
OVCAR-8 ovarian = system: OVCAR-8 ovarian
CCRF-CEM leukemia = system: CCRF-CEM leukemia
OVCAR-3 ovarian = system: OVCAR-3 ovarian
SNB-19 CNS = system: SNB-19 CNS
NCI-H460 lung = system: NCI-H460 lung
MALME-3M melanoma = system: MALME-3M melanoma
RPMI-8226 leukemia = system: RPMI-8226 leukemia
K-562 leukemia = system: K-562 leukemia
UACC-62 melanoma = system: UACC-62 melanoma
KM20L2 colon = system: KM20L2 colon
CAKI-1 renal = system: CAKI-1 renal
UO-31 renal = system: UO-31 renal
HOP-18 NSCLC = system: HOP-18 NSCLC
SK-MEL-5 melanoma = system: SK-MEL-5 melanoma
SF-539 CNS = system: SF-539 CNS
NCI-H522 lung = system: NCI-H522 lung
TK-10 renal = system: TK-10 renal
ACHN renal = system: ACHN renal
SNB-78 CNS = system: SNB-78 CNS
DMS 273 small cell lung = system: DMS 273 small cell lung
DLD-1 colon = system: DLD-1 colon
SK-MEL-28 melanoma = system: SK-MEL-28 melanoma
HCC-2998 colon = system: HCC-2998 colon
LOX IMVI melanoma = system: LOX IMVI melanoma
HL-60(TB) leukemia = system: HL-60(TB) leukemia
SK-OV-3 ovarian = system: SK-OV-3 ovarian
SW-620 colon = system: SW-620 colon
MOLT-4 leukemia = system: MOLT-4 leukemia
DMS 114 small cell lung = system: DMS 114 small cell lung
HOP-92 NSCLC = system: HOP-92 NSCLC
SNB-75 CNS = system: SNB-75 CNS
COLO 205 colon = system: COLO 205 colon
KM12 colon = system: KM12 colon
EKVX NSCLC = system: EKVX NSCLC
A549 NSCLC = system: A549 NSCLC
RXF 393 renal = system: RXF 393 renal
SF-268 CNS = system: SF-268 CNS
M14 melanoma = system: M14 melanoma
OVCAR-4 ovarian = system: OVCAR-4 ovarian
LXFL 529 NSCLC = system: LXFL 529 NSCLC
HCT-116 colon = system: HCT-116 colon
SR leukemia = system: SR leukemia

Measured: TGI

Clc1ccc(OCCSCCCCCCCCCCSCCOc2ccc(Cl)cc2)cc1
not listed: M14 melanoma | OVCAR-4 ovarian | LXFL 529 NSCLC | HCT-116 colon | SR leukemia
> 100 µM: all other assays above

CN(C)c1ccc(C(C#N)NNC(=O)Cc2ccccc2)cc1 (stereo not given)
not listed: A498 renal | SNB-19 CNS | HCC-2998 colon | EKVX NSCLC
> 100 µM: all other assays above

O=C1/C(=N\O)C2CCC1C2 (stereo not given)
not listed: DLD-1 colon | SR leukemia
> 100 µM: all other assays above

— PubChem BioAssay (NCI)
